One assay concerns the target T1, c-kit kinase (Homo sapiens, UniProt P10721).
T1 construct: The c-kit (or kinase domain thereof) is an active kinase in AlphaScreen; poly-Histidine tag (in-house protein only) (cleaved yes); host or cells: E. coli BL21(DE3)RIL, co-expressed with PTP1B
Put plainly: c-Kit biochemical assay, AlphaScreen, 10 μM ATP. The note with it: c-kit biochemical inhibitory activity; read-out: Biochemical activity (IC50 μM) Kit. Put shortly:
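His-tagged c-Kit expressed in E. coli with co-expressed PTP1B (dephosphorylated), tag removed; 0.1 ng per reaction with biotinylated-peptide substrate in 50 mM HEPES pH 7.2, 5 mM MgCl2, 5 mM MnCl2, 5% DMSO, 10 μM ATP, 1 h at room temperature. Phosphorylation detected by AlphaScreen (streptavidin donor, PY20 acceptor beads); IC50 from 8-point 1:3 dilution series.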
(In general: In Alpha technology, singlet oxygen from a donor bead excites a nearby acceptor bead.)

The next assay deals with T2, c-kit mutant D816V (Homo sapiens, UniProt P10721, D816V/DEL694-753).
T2 construct: residues 551-934, kinase insertion domain residues 694-753 deleted; 6x-histidine (N); made in house; host or cells: E. coli Arctic Express (DE3) RIL (Stratagene)
Put plainly: c-Kit mutant D816V biochemical assay, AlphaScreen. The note with it: c-kit D816V biochemical inhibitory activity; read-out: Biochemical activity (IC50 μM) Kit D816V. Put shortly: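 Purified His-tagged c-Kit D816V (E. coli-expressed) assayed in 25 mM HEPES pH 7.2 with Mg/Mn, 5% DMSO and 10 μM ATP, 30 min at room temperature, 8-point 1:3 dilutions. Phosphorylation detected by AlphaScreen with streptavidin donor and PY20 acceptor beads; IC50 from signal versus concentration.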

SMILES strings stand for the structures.

T2 sequence (P10721 with tags, fused parts or gaps DEL694-753/D816V): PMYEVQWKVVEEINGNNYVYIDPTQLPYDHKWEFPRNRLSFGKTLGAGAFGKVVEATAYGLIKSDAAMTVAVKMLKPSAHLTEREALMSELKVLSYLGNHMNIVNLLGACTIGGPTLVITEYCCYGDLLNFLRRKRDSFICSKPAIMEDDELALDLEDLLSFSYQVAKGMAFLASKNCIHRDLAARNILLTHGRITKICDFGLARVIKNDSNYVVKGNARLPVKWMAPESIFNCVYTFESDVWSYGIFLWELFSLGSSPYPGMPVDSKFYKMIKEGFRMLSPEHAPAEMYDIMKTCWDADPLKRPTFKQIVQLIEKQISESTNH
T1 sequence (P10721 26-976): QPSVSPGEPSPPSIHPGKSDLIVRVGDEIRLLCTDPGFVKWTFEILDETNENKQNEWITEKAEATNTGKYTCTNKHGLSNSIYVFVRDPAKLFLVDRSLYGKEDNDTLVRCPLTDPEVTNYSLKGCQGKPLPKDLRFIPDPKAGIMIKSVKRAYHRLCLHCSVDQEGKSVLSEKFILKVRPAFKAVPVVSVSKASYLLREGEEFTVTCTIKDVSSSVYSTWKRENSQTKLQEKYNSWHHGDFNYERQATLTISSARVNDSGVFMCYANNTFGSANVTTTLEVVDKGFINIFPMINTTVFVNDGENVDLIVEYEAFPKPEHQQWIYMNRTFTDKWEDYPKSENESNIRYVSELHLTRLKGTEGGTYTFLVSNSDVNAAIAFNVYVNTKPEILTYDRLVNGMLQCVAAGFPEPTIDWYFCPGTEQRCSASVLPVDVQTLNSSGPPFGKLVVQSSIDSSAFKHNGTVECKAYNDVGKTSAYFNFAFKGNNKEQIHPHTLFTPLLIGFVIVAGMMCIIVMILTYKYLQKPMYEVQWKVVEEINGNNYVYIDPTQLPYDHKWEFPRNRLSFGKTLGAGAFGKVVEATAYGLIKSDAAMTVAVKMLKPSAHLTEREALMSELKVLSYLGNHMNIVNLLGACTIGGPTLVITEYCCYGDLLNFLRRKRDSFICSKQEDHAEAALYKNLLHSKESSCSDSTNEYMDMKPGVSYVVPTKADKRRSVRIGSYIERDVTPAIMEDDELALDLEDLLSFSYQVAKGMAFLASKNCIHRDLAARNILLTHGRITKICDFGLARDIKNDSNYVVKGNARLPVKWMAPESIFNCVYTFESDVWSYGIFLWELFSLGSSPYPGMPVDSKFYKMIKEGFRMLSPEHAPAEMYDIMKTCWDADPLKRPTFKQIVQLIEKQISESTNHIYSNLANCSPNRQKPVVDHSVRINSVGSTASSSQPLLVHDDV

For orientation: IC50 means the concentration at which inhibition is half-maximal. Consider `CCCCS(=O)(=O)Nc1ccc(-c2cc3c(-c4ccc(NS(=O)(=O)CCCC)cc4)ncnc3[nH]2)cc1` [P-0388, N-[4-[4-[4-(butylsulfonylamino)phenyl]-7H-pyrrolo[2,3-d]pyrimidin-6-yl]phenyl]butane-1-sulfonamide], for which the IC50 on c-kit kinase is 10 to 200 µM; at c-kit mutant D816V it was 0.0001 to 1 µM.
For the molecule `O=S(=O)(Nc1ccc(-c2cc3c(-c4ccc(NS(=O)(=O)C5CC5)cc4)ncnc3[nH]2)cc1)C1CC1` [P-0389, N-[4-[4-[4-(cyclopropylsulfonylamino)phenyl]-7H-pyrrolo[2,3-d]pyrimidin-6-yl]phenyl]cyclopropanesulfonamide], the IC50 at c-kit kinase fell in the range of 1 to 10 µM; on c-kit mutant D816V, 0.0001 to 1 µM.
Turning to `Cc1ccc(S(=O)(=O)Nc2ccc(-c3ncnc4[nH]c(C)cc34)cc2)cc1` [P-0390, 4-methyl-N-[4-(6-methyl-7H-pyrrolo[2,3-d]pyrimidin-4-yl)phenyl]benzenesulfonamide], the concentration for half-maximal inhibition (IC50) on c-kit kinase was 1 to 10 µM; at c-kit mutant D816V, 0.0001 to 1 µM.
Turning to `O=S(=O)(Nc1ccc(-c2ncnc3[nH]c(-c4ccc(F)cc4)cc23)c(F)c1)c1ccc(Cl)cc1` [P-0396, 4-chloro-N-[3-fluoro-4-[6-(4-fluorophenyl)-7H-pyrrolo[2,3-d]pyrimidin-4-yl]phenyl]benzenesulfonamide], the IC50 on c-kit kinase fell in the range of 10 to 200 µM; on c-kit mutant D816V it was 0.0001 to 1 µM.
Consider `CCCS(=O)(=O)Nc1ccc(-c2ncnc3[nH]c(-c4ccc(F)cc4)cc23)c(F)c1` [P-0397, N-[3-fluoro-4-[6-(4-fluorophenyl)-7H-pyrrolo[2,3-d]pyrimidin-4-yl]phenyl]propane-1-sulfonamide], for which the values for the half-inhibitory concentration (IC50) on c-kit kinase and at c-kit mutant D816V were 1 to 10 µM and 0.0001 to 1 µM, respectively.
Consider `CS(=O)(=O)Nc1ccc(-c2ncnc3[nH]c(-c4ccc(F)cc4)cc23)c(F)c1` [P-0398, N-[3-fluoro-4-[6-(4-fluorophenyl)-7H-pyrrolo[2,3-d]pyrimidin-4-yl]phenyl]methanesulfonamide], for which the IC50 at c-kit kinase and on c-kit mutant D816V was 0.0001 to 1 µM throughout.
Take `CS(=O)(=O)Nc1ccc(-c2ncnc3[nH]c(-c4ccc(F)cc4)cc23)cc1F` [P-0399, N-[2-fluoro-4-[6-(4-fluorophenyl)-7H-pyrrolo[2,3-d]pyrimidin-4-yl]phenyl]methanesulfonamide]: the IC50 at c-kit kinase and on c-kit mutant D816V was 0.0001 to 1 µM throughout.
On to `O=S(=O)(Nc1ccc(-c2ncnc3[nH]c(-c4ccc(F)cc4)cc23)c(F)c1)C1CC1` [P-0401, N-[3-fluoro-4-[6-(4-fluorophenyl)-7H-pyrrolo[2,3-d]pyrimidin-4-yl]phenyl]cyclopropanesulfonamide], for which the half-maximal inhibitory concentration (IC50) on c-kit kinase was in the range of 10 to 200 µM; at c-kit mutant D816V, 0.0001 to 1 µM.
The like results for `COc1ccc(S(=O)(=O)Nc2ccc(-c3ncnc4[nH]c(-c5ccc(F)cc5)cc34)c(F)c2)cc1` [P-0402, N-[3-fluoro-4-[6-(4-fluorophenyl)-7H-pyrrolo[2,3-d]pyrimidin-4-yl]phenyl]-4-methoxy-benzenesulfonamide] were, in that order, 1 to 10 µM and 0.0001 to 1 µM.
As to `CCCS(=O)(=O)Nc1ccc(-c2ncnc3[nH]c(-c4ccc(F)cc4)cc23)cc1F` [P-0403, N-[2-fluoro-4-[6-(4-fluorophenyl)-7H-pyrrolo[2,3-d]pyrimidin-4-yl]phenyl]propane-1-sulfonamide], the half-maximal inhibitory concentration (IC50) at c-kit kinase and at c-kit mutant D816V was 0.0001 to 1 µM in each case.
`O=S(=O)(Nc1ccc(-c2ncnc3[nH]c(-c4ccc(F)cc4)cc23)cc1)c1ccc(F)cc1` [P-0404, 4-fluoro-N-[4-[6-(4-fluorophenyl)-7H-pyrrolo[2,3-d]pyrimidin-4-yl]phenyl]benzenesulfonamide]: the IC50 at c-kit kinase and on c-kit mutant D816V was 0.0001 to 1 µM throughout.
As to `CCS(=O)(=O)Nc1cccc(-c2ncnc3[nH]c(-c4ccc(F)cc4)cc23)c1` [P-0407, N-[3-[6-(4-fluorophenyl)-7H-pyrrolo[2,3-d]pyrimidin-4-yl]phenyl]ethanesulfonamide], the 50% inhibitory concentration (IC50) at c-kit kinase and at c-kit mutant D816V was 1 to 10 µM in each case.
Turning to `O=S(=O)(Nc1ccc(-c2ncnc3[nH]c(-c4ccc(F)cc4)cc23)cc1F)c1ccc(F)cc1` [P-0408, 4-fluoro-N-[2-fluoro-4-[6-(4-fluorophenyl)-7H-pyrrolo[2,3-d]pyrimidin-4-yl]phenyl]benzenesulfonamide], the concentration for half-maximal inhibition (IC50) fell in the range of 10 to 200 µM on c-kit kinase and 1 to 10 µM on c-kit mutant D816V.
In the case of `COc1ccc(S(=O)(=O)Nc2ccc(-c3ncnc4[nH]c(-c5ccc(F)cc5)cc34)cc2F)cc1` [P-0409, N-[2-fluoro-4-[6-(4-fluorophenyl)-7H-pyrrolo[2,3-d]pyrimidin-4-yl]phenyl]-4-methoxy-benzenesulfonamide], the half-inhibitory concentration (IC50) on c-kit kinase lay in the range of 10 to 200 µM; at c-kit mutant D816V it was 1 to 10 µM.
For `O=S(=O)(Nc1ccc(-c2ncnc3[nH]c(-c4ccc(F)cc4)cc23)cc1F)C1CC1` [P-0410, N-[2-fluoro-4-[6-(4-fluorophenyl)-7H-pyrrolo[2,3-d]pyrimidin-4-yl]phenyl]cyclopropanesulfonamide], the figures for the IC50 at c-kit kinase and on c-kit mutant D816V were 1 to 10 µM and 0.0001 to 1 µM, respectively.
`O=S(=O)(Nc1cccc(-c2ncnc3[nH]c(-c4ccc(F)cc4)cc23)c1)C1CC1` [P-0413, N-[3-[6-(4-fluorophenyl)-7H-pyrrolo[2,3-d]pyrimidin-4-yl]phenyl]cyclopropanesulfonamide]: the IC50 at c-kit kinase and on c-kit mutant D816V was 1 to 10 µM in each case.
With `CS(=O)(=O)Nc1cccc(-c2ncnc3[nH]c(-c4ccc(F)cc4)cc23)c1` [P-0414, N-[3-[6-(4-fluorophenyl)-7H-pyrrolo[2,3-d]pyrimidin-4-yl]phenyl]methanesulfonamide], the IC50 at c-kit kinase and at c-kit mutant D816V was 1 to 10 µM in each case.
With `Fc1ccc(-c2cc3c(-c4ccc(NCc5ccc(C(F)(F)F)nc5)nc4)ncnc3[nH]2)cc1` [P-0415, 5-[6-(4-fluorophenyl)-7H-pyrrolo[2,3-d]pyrimidin-4-yl]-N-[[6-(trifluoromethyl)-3-pyridyl]methyl]pyridin-2-amine], the IC50 at c-kit kinase lay within 0.0001 to 1 µM; at c-kit mutant D816V it was 1 to 10 µM.
Take `Nc1ccc(-c2ncnc3[nH]c(-c4ccc(F)cc4)cc23)cc1` [P-0416, 4-[6-(4-fluorophenyl)-7H-pyrrolo[2,3-d]pyrimidin-4-yl]aniline]: the IC50 on c-kit kinase and at c-kit mutant D816V was 0.0001 to 1 µM each time.
As for `NS(=O)(=O)c1ccc(-c2ncnc3[nH]c(-c4ccc(F)cc4)cc23)cc1` [P-0418, 4-[6-(4-fluorophenyl)-7H-pyrrolo[2,3-d]pyrimidin-4-yl]benzenesulfonamide], the figures for the IC50 on c-kit kinase and at c-kit mutant D816V were 1 to 10 µM and 0.0001 to 1 µM, respectively.
On to `CCCCS(=O)(=O)Nc1ccc(-c2ncnc3[nH]c(-c4ccc(F)cc4)cc23)cc1` [P-0419, N-[4-[6-(4-fluorophenyl)-7H-pyrrolo[2,3-d]pyrimidin-4-yl]phenyl]butane-1-sulfonamide], for which the results for the IC50 at c-kit kinase and at c-kit mutant D816V were 10 to 200 µM and 0.0001 to 1 µM, respectively.
In the case of `O=S(=O)(Nc1ccc(-c2ncnc3[nH]c(-c4ccc(F)cc4)cc23)cc1)C1CC1` [P-0420, N-[4-[6-(4-fluorophenyl)-7H-pyrrolo[2,3-d]pyrimidin-4-yl]phenyl]cyclopropanesulfonamide], the IC50 at c-kit kinase was 10 to 200 µM; at c-kit mutant D816V, 0.0001 to 1 µM.
`COc1ccc(CNS(=O)(=O)c2ccc(-c3ncnc4[nH]c(-c5ccc(F)cc5)cc34)cc2)cc1` [P-0423, 4-[6-(4-fluorophenyl)-7H-pyrrolo[2,3-d]pyrimidin-4-yl]-N-[(4-methoxyphenyl)methyl]benzenesulfonamide]: the IC50 at c-kit kinase and on c-kit mutant D816V was 10 to 200 µM each time.
Regarding `Cc1ccc(NS(=O)(=O)c2ccc(-c3ncnc4[nH]c(-c5ccc(F)cc5)cc34)cc2)cc1` [P-0426, 4-[6-(4-fluorophenyl)-7H-pyrrolo[2,3-d]pyrimidin-4-yl]-N-(p-tolyl)benzenesulfonamide], the IC50 at c-kit kinase lay in the range of 10 to 200 µM; on c-kit mutant D816V it was 1 to 10 µM.
`O=S(=O)(NC1CC1)c1cccc(-c2ncnc3[nH]c(-c4ccc(F)cc4)cc23)c1` [P-0429, N-cyclopropyl-3-[6-(4-fluorophenyl)-7H-pyrrolo[2,3-d]pyrimidin-4-yl]benzenesulfonamide]: the 50% inhibitory concentration (IC50) on c-kit kinase and at c-kit mutant D816V was 0.0001 to 1 µM in each case.
As for `CNS(=O)(=O)c1ccc(-c2ncnc3[nH]c(-c4ccc(F)cc4)cc23)cc1` [P-0430, 4-[6-(4-fluorophenyl)-7H-pyrrolo[2,3-d]pyrimidin-4-yl]-N-methyl-benzenesulfonamide], the IC50 at c-kit kinase lay in the range of 1 to 10 µM; on c-kit mutant D816V it was 0.0001 to 1 µM.
With `CCS(=O)(=O)Nc1ccc(-c2ncnc3[nH]c(-c4ccc(F)cc4)cc23)cc1` [P-0431, N-[4-[6-(4-fluorophenyl)-7H-pyrrolo[2,3-d]pyrimidin-4-yl]phenyl]ethanesulfonamide], the 50% inhibitory concentration (IC50) at c-kit kinase and at c-kit mutant D816V was 0.0001 to 1 µM throughout.
For `CS(=O)(=O)Nc1ccc(-c2ncnc3[nH]c(-c4ccc(F)cc4)cc23)cc1` [P-0432, N-[4-[6-(4-fluorophenyl)-7H-pyrrolo[2,3-d]pyrimidin-4-yl]phenyl]methanesulfonamide], the IC50 on c-kit kinase and on c-kit mutant D816V was 0.0001 to 1 µM each time.
`Cc1ccc(S(=O)(=O)Nc2ccc(-c3ncnc4[nH]c(-c5ccc(F)cc5)cc34)cc2)cc1` [P-0433, N-[4-[6-(4-fluorophenyl)-7H-pyrrolo[2,3-d]pyrimidin-4-yl]phenyl]-4-methyl-benzenesulfonamide]: the IC50 on c-kit kinase and on c-kit mutant D816V was 0.0001 to 1 µM in each case.

(Values after patent publication US10227357B2, “Compounds and methods for kinase modulation, and indications therefor” (Plexxikon Inc., priority 2012, dated 2019).)
